Test results from US9382204B2, “Inhibitors targeting the DNA-binding domain of human STAT3 for treatment of metastatic cancers” (Indiana University Research and Technology Corporation, priority 2013, dated 2016).

Tested on: STAT3
Test: STAT3-dependent luciferase reporter assay in MDA-MB-231-STAT3 stable cells
Assay type: cell-based, human
Settings: 20 μM; for Rel. luciferase activity (%) 1: experiment 1, relative to DMSO; for Rel. luciferase activity (%) 2: experiment 2, relative to DMSO; for Rel. luciferase activity (%) 3: experiment 3, relative to DMSO; for Rel. luciferase activity (%) Mean: mean of experiments, relative to DMSO; for inhibition of luciferase expression compared to DMSO vehicle control: significant = p value less than 0.05
Protocol: FIG. 12. Identification of active inS3-54 analogues. (A) Effects of inS3-54 analogues on STAT3-dependent luciferase expression. MDA-MB-231 cells with stable STAT3-dependent luciferase expression were treated with DMSO control, 20 μM inSTAT3-54 or its analogues (A1-A79), followed by measurement of luciferase activity. (*p<0.05; **p<0.01; ***p<0.001).
MDA-MB-231-STAT3 stable cell line with high level of STAT3-dependent luciferase expression was exposed to candidate compounds at 20 μM in DMSO for 48 hours based on previous studies, and luciferase activity was measured using a luciferase assay kit (Promega, USA), following manufacturer's instructions. The final DMSO concentration in this and following assays was 0.1% (vol/vol).

With `Cc1ccccc1N1C(=O)C(=Cc2ccc(-c3ccc([N+](=O)[O-])cc3)o2)C=C1c1ccccc1` [Compound A9] the “Rel. luciferase activity (%) 1” value was 78.4%, the “Rel. luciferase activity (%) 2” value was 95.8% and the “Rel. luciferase activity (%) 3” value was 96.2%. For the same compound, the “Rel. luciferase activity (%) Mean” value was 90.2%.
With `Cc1ccc(N2C(=O)C(=Cc3ccc(-c4ccc([N+](=O)[O-])cc4)o3)C=C2c2ccccc2)cc1C` [Compound A5] the “Rel. luciferase activity (%) 1” value was 113.5%, the “Rel. luciferase activity (%) 2” value was 109.3% and the “Rel. luciferase activity (%) 3” value was 92.2%. For the same compound, the “Rel. luciferase activity (%) Mean” value was 105.0%.
With `COc1ccc(C=C2C=C(c3ccccc3)N(c3ccc(NC(C)=O)cc3)C2=O)cc1` [Compound A60] the “Rel. luciferase activity (%) 1” value was 70.7%, the “Rel. luciferase activity (%) 2” value was 107.0% and the “Rel. luciferase activity (%) 3” value was 58.9%. The “Rel. luciferase activity (%) Mean” value was 78.9%.
`COC(=O)c1cccc(N2C(=O)C(=Cc3ccc([N+](=O)[O-])cc3)C=C2c2ccccc2)c1` [Compound A34] was tested, and the “Rel. luciferase activity (%) 1” value was 61.1%, the “Rel. luciferase activity (%) 2” value was 103.6% and the “Rel. luciferase activity (%) 3” value was 80.8%. For the same compound, the “Rel. luciferase activity (%) Mean” value was 81.9%.
In the case of `O=C1C(=Cc2ccc(Cl)cc2)C=C(c2ccccc2)N1c1ccccc1Cl` [Compound A27], the “Rel. luciferase activity (%) 1” value is reported as 48.5%, the “Rel. luciferase activity (%) 2” value is reported as 83.6% and the “Rel. luciferase activity (%) 3” value is reported as 74.2%. For the same compound, the “Rel. luciferase activity (%) Mean” value was 68.8% and the “inhibition of luciferase expression compared to DMSO vehicle control” value was “significantly inhibited”.
With `O=C1C(=Cc2ccc(Cl)cc2)C=C(c2ccccc2)N1c1ccc(Nc2ccccc2)cc1` [Compound A28] the “Rel. luciferase activity (%) 1” value was 67.2%, the “Rel. luciferase activity (%) 2” value was 106.0% and the “Rel. luciferase activity (%) 3” value was 62.1%. The “Rel. luciferase activity (%) Mean” value was 78.4%.
With `COc1ccc(C=C2C=C(c3ccccc3)N(c3ccccc3Cl)C2=O)cc1` [Compound A57] the “Rel. luciferase activity (%) 1” value was 59.5%, the “Rel. luciferase activity (%) 2” value was 97.9% and the “Rel. luciferase activity (%) 3” value was 51.5%. For the same compound, the “Rel. luciferase activity (%) Mean” value was 69.6%.
For `O=C1C(=Cc2ccc([N+](=O)[O-])cc2)C=C(c2ccccc2)N1c1ccc(F)cc1` [Compound A40], the “Rel. luciferase activity (%) 1” value was 126.5%, the “Rel. luciferase activity (%) 2” value was 101.5% and the “Rel. luciferase activity (%) 3” value was 43.0%. For the same compound, the “Rel. luciferase activity (%) Mean” value was 90.3%.
In the case of `COc1ccc(N2C(=O)C(=Cc3ccc([N+](=O)[O-])cc3)C=C2c2ccccc2)cc1` [Compound A33], the “Rel. luciferase activity (%) 1” value is reported as 33.8%, the “Rel. luciferase activity (%) 2” value is reported as 92.3% and the “Rel. luciferase activity (%) 3” value is reported as 99.1%. The “Rel. luciferase activity (%) Mean” value was 75.1%.
For `O=C1C(=Cc2ccc(Cl)cc2)C=C(c2ccccc2)N1c1ccc(Cl)cc1` [Compound A16], the “Rel. luciferase activity (%) 1” value was 55.8%, the “Rel. luciferase activity (%) 2” value was 91.2% and the “Rel. luciferase activity (%) 3” value was 57.1%. The “Rel. luciferase activity (%) Mean” value was 68.0%.
`COc1ccccc1N1C(=O)C(=Cc2ccc([N+](=O)[O-])cc2)C=C1c1ccccc1` [Compound A32] was tested, and the “Rel. luciferase activity (%) 1” value was 58.2%, the “Rel. luciferase activity (%) 2” value was 99.2% and the “Rel. luciferase activity (%) 3” value was 58.6%. For the same compound, the “Rel. luciferase activity (%) Mean” value was 72.0%.
For `Cc1ccc(N2C(=O)C(=Cc3ccc(-c4ccc([N+](=O)[O-])cc4)o3)C=C2c2ccccc2)cc1` [Compound A4], the “Rel. luciferase activity (%) 1” value was 117.8%, the “Rel. luciferase activity (%) 2” value was 108.4% and the “Rel. luciferase activity (%) 3” value was 103.4%. The “Rel. luciferase activity (%) Mean” value was 109.9%.
`COc1ccc(C=C2C=C(c3ccccc3)N(c3ccc4ccccc4c3)C2=O)cc1` [Compound A56] was tested, and the “Rel. luciferase activity (%) 1” value was 150.7%, the “Rel. luciferase activity (%) 2” value was 143.4% and the “Rel. luciferase activity (%) 3” value was 76.2%. For the same compound, the “Rel. luciferase activity (%) Mean” value was 123.4%.
`Cc1ccc(N2C(=O)C(=Cc3ccc([N+](=O)[O-])cc3)C=C2c2ccccc2)cc1C` [Compound A30] was tested, and the “Rel. luciferase activity (%) 1” value was 89.6%, the “Rel. luciferase activity (%) 2” value was 83.9% and the “Rel. luciferase activity (%) 3” value was 61.2%. The “Rel. luciferase activity (%) Mean” value was 78.2%.
`O=C1C(=Cc2ccc([N+](=O)[O-])cc2)C=C(c2ccccc2)N1c1ccc(Cl)c(Cl)c1` [Compound A48] was tested, and the “Rel. luciferase activity (%) 1” value was 87.5%, the “Rel. luciferase activity (%) 2” value was 108.6% and the “Rel. luciferase activity (%) 3” value was 42.5%. For the same compound, the “Rel. luciferase activity (%) Mean” value was 79.5%.
In the case of `COc1ccc(C=C2C=C(c3ccccc3)N(c3ccc(O)cc3)C2=O)cc1` [Compound A72], the “Rel. luciferase activity (%) 1” value is reported as 34.2%, the “Rel. luciferase activity (%) 2” value is reported as 58.1% and the “Rel. luciferase activity (%) 3” value is reported as 34.1%. For the same compound, the “Rel. luciferase activity (%) Mean” value was 42.1% and the “inhibition of luciferase expression compared to DMSO vehicle control” value was “significantly inhibited”.
In the case of `CC(=O)c1cccc(N2C(=O)C(=Cc3ccc(-c4ccc([N+](=O)[O-])cc4)o3)C=C2c2ccccc2)c1` [Compound A8], the “Rel. luciferase activity (%) 1” value is reported as 71.9%, the “Rel. luciferase activity (%) 2” value is reported as 102.6% and the “Rel. luciferase activity (%) 3” value is reported as 57.5%. For the same compound, the “Rel. luciferase activity (%) Mean” value was 77.3%.
In the case of `O=C1C(=Cc2ccc(-c3ccc([N+](=O)[O-])cc3)o2)C=C(c2ccccc2)N1c1cccc(Cl)c1` [Compound A10], the “Rel. luciferase activity (%) 1” value is reported as 87.4%, the “Rel. luciferase activity (%) 2” value is reported as 110.4% and the “Rel. luciferase activity (%) 3” value is reported as 103.7%. The “Rel. luciferase activity (%) Mean” value was 100.5%.
In the case of `O=C1C(=Cc2ccc([N+](=O)[O-])cc2)C=C(c2ccccc2)N1c1ccc(-c2ccccc2)cc1` [Compound A35], the “Rel. luciferase activity (%) 1” value is reported as 51.3%, the “Rel. luciferase activity (%) 2” value is reported as 109.5% and the “Rel. luciferase activity (%) 3” value is reported as 112.6%. For the same compound, the “Rel. luciferase activity (%) Mean” value was 91.1%.
`O=C1C(=Cc2ccc([N+](=O)[O-])cc2)C=C(c2ccccc2)N1c1ccc(Nc2ccccc2)cc1` [Compound A49] was tested, and the “Rel. luciferase activity (%) 1” value was 93.7%, the “Rel. luciferase activity (%) 2” value was 124.2% and the “Rel. luciferase activity (%) 3” value was 90.2%. For the same compound, the “Rel. luciferase activity (%) Mean” value was 102.7%.
In the case of `COC(=O)c1ccc(N2C(=O)C(=Cc3ccc([N+](=O)[O-])cc3)C=C2c2ccccc2)cc1` [Compound A43], the “Rel. luciferase activity (%) 1” value is reported as 98.6%, the “Rel. luciferase activity (%) 2” value is reported as 100.4% and the “Rel. luciferase activity (%) 3” value is reported as 66.9%. The “Rel. luciferase activity (%) Mean” value was 88.6%.
For `COc1ccc(C=C2C=C(c3ccccc3)N(c3cccc(Cl)c3Cl)C2=O)cc1` [Compound A58], the “Rel. luciferase activity (%) 1” value was 78.9%, the “Rel. luciferase activity (%) 2” value was 81.8% and the “Rel. luciferase activity (%) 3” value was 36.8%. For the same compound, the “Rel. luciferase activity (%) Mean” value was 65.8%.
`COc1ccc(N2C(=O)C(=Cc3ccc(-c4ccc([N+](=O)[O-])cc4)o3)C=C2c2ccccc2)cc1` [Compound A7] was tested, and the “Rel. luciferase activity (%) 1” value was 99.6%, the “Rel. luciferase activity (%) 2” value was 109.4% and the “Rel. luciferase activity (%) 3” value was 72.3%. The “Rel. luciferase activity (%) Mean” value was 93.8%.
With `COc1ccc(N2C(=O)C(=Cc3ccc(Cl)cc3)C=C2c2ccccc2)cc1` [Compound A17] the “Rel. luciferase activity (%) 1” value was 103.2%, the “Rel. luciferase activity (%) 2” value was 120.5% and the “Rel. luciferase activity (%) 3” value was 104.2%. The “Rel. luciferase activity (%) Mean” value was 109.3%.
`COc1ccc(C=C2C=C(c3ccccc3)N(c3ccccc3O)C2=O)cc1` [Compound A73] was tested, and the “Rel. luciferase activity (%) 1” value was 72.9%, the “Rel. luciferase activity (%) 2” value was 97.8% and the “Rel. luciferase activity (%) 3” value was 103.4%. The “Rel. luciferase activity (%) Mean” value was 91.3%.
In the case of `O=C(O)c1ccc(N2C(=O)C(=Cc3ccc(-c4ccc(Cl)c(Cl)c4)o3)C=C2c2ccccc2)cc1` [Compound A61], the “Rel. luciferase activity (%) 1” value is reported as 57.8%, the “Rel. luciferase activity (%) 2” value is reported as 107.0% and the “Rel. luciferase activity (%) 3” value is reported as 40.8%. The “Rel. luciferase activity (%) Mean” value was 68.5%.
